ChEMBL document CHEMBL1201862, “PubChem BioAssay data set” (2004)
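Tested at 5 concentrations; 48 h exposure; 96-well plates; endpoints linearly interpolated, else capped at highest concentration. GI50 is the concentration that inhibits growth by half.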 Active and inactive are the calls of the source. Rule as the data show it: active = GI50 up to about 1.1 µM and inactive = higher.

Tests used:
Test in all cases: NCI anticancer screen, dose series, 48 h
DMS-114 = tested on: DMS-114
M19-MEL = tested on: M19-MEL
HOP-18 = tested on: HOP-18
OVCAR-4 = tested on: OVCAR-4
M14 = tested on: M14
KM-20L2 = tested on: KM-20L2
NCI-H226 = tested on: NCI-H226
A498 = tested on: A498
SN12C = tested on: SN12C
UACC-62 = tested on: UACC-62
SF-295 = tested on: SF-295
DMS-273 = tested on: DMS-273
HL-60 = tested on: HL-60
SK-MEL-2 = tested on: SK-MEL-2
SK-MEL-28 = tested on: SK-MEL-28
DLD-1 = tested on: DLD-1
SW-620 = tested on: SW-620
HT-29 = tested on: HT-29
U-251 = tested on: U-251
LOX IMVI = tested on: LOX IMVI
HCT-116 = tested on: HCT-116
SNB-75 = tested on: SNB-75
XF498 = tested on: XF498
HCT-15 = tested on: HCT-15
KM12 = tested on: KM12
UACC-257 = tested on: UACC-257
SNB-78 = tested on: SNB-78
SK-OV-3 = tested on: SK-OV-3
MOLT-4 = tested on: MOLT-4
NCI-H460 = tested on: NCI-H460
RPMI-8226 = tested on: RPMI-8226
SF-268 = tested on: SF-268
HOP-92 = tested on: HOP-92
ACHN = tested on: ACHN
LXFL 529 = tested on: LXFL 529
UO-31 = tested on: UO-31
HOP-62 = tested on: HOP-62
Malme-3M = tested on: Malme-3M
OVCAR-3 = tested on: OVCAR-3
EKVX = tested on: EKVX
HCC 2998 = tested on: HCC 2998
SR = tested on: SR
NCI-H23 = tested on: NCI-H23
COLO 205 = tested on: COLO 205
NCI-H522 = tested on: NCI-H522
K562 = tested on: K562
OVCAR-8 = tested on: OVCAR-8
RXF 393 = tested on: RXF 393
SF-539 = tested on: SF-539
IGROV-1 = tested on: IGROV-1
A549 = tested on: A549
SNB-19 = tested on: SNB-19
TK-10 = tested on: TK-10
786-0 = tested on: 786-0
CCRF-CEM = tested on: CCRF-CEM
SK-MEL-5 = tested on: SK-MEL-5
CAKI-1 = tested on: CAKI-1
RXF 631 = tested on: RXF 631
OVCAR-5 = tested on: OVCAR-5

Measured: GI50

COc1nc(NC2OCC(O)C(O)C2O)c(NC2OCC(O)C(O)C2O)c(=O)n1C (configuration not stated)
> 100 µM: HCT-15
inactive: DMS-114 > 100 µM | M19-MEL > 100 µM | HOP-18 > 100 µM | OVCAR-4 > 100 µM | M14 > 100 µM | KM-20L2 > 100 µM | NCI-H226 89.7 µM | A498 > 100 µM | SN12C > 100 µM | UACC-62 > 100 µM | SF-295 > 100 µM | DMS-273 > 100 µM | HL-60 > 100 µM | SK-MEL-2 > 100 µM | SK-MEL-28 > 100 µM | DLD-1 > 100 µM | SW-620 > 100 µM | HT-29 > 100 µM | U-251 > 100 µM | LOX IMVI > 100 µM | HCT-116 > 100 µM | SNB-75 > 100 µM | XF498 > 100 µM | KM12 > 100 µM | UACC-257 > 100 µM | SNB-78 > 100 µM | SK-OV-3 > 100 µM | MOLT-4 > 100 µM | NCI-H460 > 100 µM | RPMI-8226 > 100 µM | SF-268 > 100 µM | HOP-92 > 100 µM | ACHN > 100 µM | LXFL 529 > 100 µM | UO-31 > 100 µM | HOP-62 > 100 µM | Malme-3M > 100 µM | OVCAR-3 > 100 µM | EKVX > 100 µM | HCC 2998 > 100 µM | SR > 100 µM | NCI-H23 > 100 µM | COLO 205 > 100 µM | NCI-H522 > 100 µM | K562 > 100 µM | OVCAR-8 > 100 µM | RXF 393 > 100 µM | SF-539 > 100 µM | IGROV-1 > 100 µM | A549 > 100 µM | SNB-19 > 100 µM | TK-10 > 100 µM | 786-0 > 100 µM | CCRF-CEM > 100 µM

CC(=O)Oc1cc(OC(C)=O)c2c(=O)c3ccccc3[nH]c2c1
inactive: DMS-114 24.8 µM | M19-MEL 31.9 µM | HOP-18 10.5 µM | OVCAR-4 65.9 µM | NCI-H226 27.5 µM | SN12C 36.5 µM | UACC-62 62.1 µM | SF-295 32.7 µM | DMS-273 45.4 µM | SK-MEL-2 49.5 µM | SK-MEL-28 54.6 µM | DLD-1 21.3 µM | HT-29 49.2 µM | LOX IMVI 39.4 µM | HCT-116 56.8 µM | SNB-75 35.2 µM | XF498 11.2 µM | SK-MEL-5 18.9 µM | KM12 37.8 µM | UACC-257 28.1 µM | SNB-78 57 µM | SK-OV-3 13.9 µM | MOLT-4 27.5 µM | NCI-H460 33.3 µM | SF-268 50.5 µM | ACHN 24.6 µM | LXFL 529 26.9 µM | UO-31 12.5 µM | Malme-3M 24.4 µM | OVCAR-3 16.2 µM | NCI-H23 27.2 µM | NCI-H522 24.8 µM | OVCAR-8 32.9 µM | RXF 393 58.3 µM | SF-539 20.8 µM | IGROV-1 19.1 µM | A549 61.9 µM | SNB-19 70.1 µM | TK-10 38.5 µM
49.3 µM: HCT-15

COc1cc(C(=O)N2CCc3c([nH]c4c([N+](=O)[O-])c(OC)ccc34)C2C)cc(OC)c1OC (configuration not stated)
inactive: CAKI-1 > 100 µM | DMS-114 > 100 µM | OVCAR-4 > 100 µM | M14 > 100 µM | KM-20L2 > 100 µM | NCI-H226 > 100 µM | A498 > 100 µM | SN12C > 100 µM | UACC-62 20.1 µM | SF-295 > 100 µM | DMS-273 > 100 µM | HL-60 > 100 µM | SK-MEL-2 > 100 µM | SK-MEL-28 > 100 µM | DLD-1 > 100 µM | SW-620 > 100 µM | HT-29 > 100 µM | U-251 > 100 µM | LOX IMVI > 100 µM | HCT-116 > 100 µM | SNB-75 40.8 µM | KM12 > 100 µM | UACC-257 > 100 µM | SNB-78 58.7 µM | MOLT-4 > 100 µM | NCI-H460 > 100 µM | RPMI-8226 > 100 µM | RXF 631 79.6 µM | SF-268 29.8 µM | ACHN > 100 µM | LXFL 529 > 100 µM | UO-31 > 100 µM | HOP-62 > 100 µM | OVCAR-3 > 100 µM | EKVX > 100 µM | HCC 2998 > 100 µM | SR > 100 µM | NCI-H23 > 100 µM | COLO 205 > 100 µM | NCI-H522 > 100 µM | K562 > 100 µM | OVCAR-8 > 100 µM | RXF 393 26.7 µM | SF-539 89.1 µM | OVCAR-5 > 100 µM | IGROV-1 8.11 µM | A549 > 100 µM | SNB-19 > 100 µM | TK-10 > 100 µM | 786-0 > 100 µM | CCRF-CEM > 100 µM
> 100 µM: HCT-15
